Reference: patent US20060052319A9, “Sensitization of cells to cytotoxic agents using oligonucleotides directed to nucleotide excision repair or transcritpion coupled repair genes” (priority 2000, published 2006)
Where two headings read alike, the source gives them in different places.

Columns and labels:
[1] = test system: XPA mRNA; test: RT-PCR analysis of XPA mRNA levels after oligonucleotide transfection; type: cell-based; conditions: A2780/CP70 cells, 200 nM oligonucleotide with lipofectin, FIG. 3
Description: (§1) Total RNA was isolated from 2×10^6 cells using a total RNA isolation kit (S.N.A.P., Invitrogen, Carlsbad, Calif.) as instructed and was quantitated spectrophotometrically via absorbance at 260 nm. RT-PCR analysis was performed using the Superscript One-Step RT-PCR System (Life Technologies, Rockville, Md.). Ten ng samples of total RNA were used for RT-PCR analyses because it was determined that quantities of RT-PCR products derived from XPA and CSB mRNA varied in a linear fashion when RT-PCR was performed on total RNA samples of 1-50 ng. For CSB, primers: […]
(§2) were selected to amplify a 235-bp segment.
(§3) RT-PCR amplification was performed for 40 cycles to detect low mRNA levels while remaining in the linear range of PCR. Aliquots of amplified DNA were resolved via 1.5% agarose gel electrophoresis and visualized by ethidium bromide staining.

[2] = test system: A2780/CP70 ovarian carcinoma cells; test: MTS cell proliferation assay, sensitization to cisplatin or oxaliplatin after oligonucleotide transfection; conditions: for reduction of the ID50 of cisplatin / reduction of the ID50 of oxaliplatin / sensitivity of the cells to cisplatin or oxaliplatin (cytotoxicity of both platinum agents): A2780/CP70 cells transfected with oligonucleotide, three days in drug, MTS assay; for potentiation of cisplatin or oxaliplatin, dose response curves normalized to HYB 1019-transfected cells: A2780/CP70 cells, normalized to control oligonucleotide
Description: (§8) The oligonucleotides targeting CSB (969 and 971) were tested for their ability to sensitize A2780/CP70 cells to cisplatin or oxaliplatin. Cells were transfected with oligonucleotides and 24 hours later were replated on 96 well plates. After culturing in the presence of drug for another three days, cell viability was assessed by the MTS assay.
(§9) Delivery of oligonucleotides into A2780/CP70 cells for RT-PCR and cell proliferation assays was achieved using Lipofectin (Life Technologies, Rockville, Md.) as per the manufacturer's procedure. The final concentration of oligonucleotides was 200 nM and final concentration of lipofectin was 10 μg/ml. After 4 hours incubation with the lipofectin-oligonucleotides mixture, cells were replaced with normal culture medium and treated as indicated for subsequent assays.
(§10) For A2780/CP70 cells transfected with oligonucleotides or mismatched controls, cells were harvested via trypsinization 16-24 hrs after transfection and transferred to 96 well plates at 5×10^3 cells per well. […] Twenty-four hours after transfer, cells in quadruplicate wells were treated with cisplatin (Sigma, St. Louis, Mo.) in 2 mM phosphate buffered saline (PBS) or oxaliplatin National Cancer Institute) in 4 mM PBS at serial dilutions in culture medium or with no drug and maintained for three more days. Cell survival was quantitated using the CellTiter 96 Non-radioactive Cell Proliferation Assay (Promega, Madison, Wis.). […] A Trypan blue exclusion assay was also performed to verify that the values obtained via the cell titer assay correlated to numbers of viable cells. Readings from quadruplicate wells were averaged, normalized with respect to readings obtained from cells unexposed to drug, and are presented +/− standard deviation. Statistical significance was assessed via ANOVA (one-way followed by Dunnett's multiple comparison test) using the Prism software package (GraphPad, Inc. San Diego, Calif.). P values reported are for the multiple comparison test.

[3] = test system: A2780/CP70 cells; test: Growth in soft agar (colony) assay with cisplatin or oxaliplatin; type: cell-based; conditions: in the presence of either cisplatin or oxaliplatin, colonies counted 10 days later
Description: An alternative method for assessing the ability of oligonucleotides to inhibit tumor cell proliferation was also utilized. In this method, the transfected cells were transferred to soft agar containing various concentrations of oxaliplatin or cisplatin. Resulting colonies were counted 10 days later.
For growth in soft agar assay, cells transfected the previous day with oligonucleotides as described above were suspended (10^4 cells/well) in 0.5 ml of 0.3% Difco Noble agar (Becton Dickinson & Co. Microbiology Systems, Sparks, Md.) supplemented with complete culture medium and layered over 0.5 ml of 0.8% agar-medium in chambers of 24 well plates. Drug was added (day 0) and colonies counted ten days later after staining with nitroblue tetrazolium (Sigma, St. Louis, Mo.) as previously described (Rockx, et al. (2000) Proc. Nat. Acad. Sci. (USA) 97:10503-8). For this assay, statistical comparison was via paired t-test.

[4] = test system: CSB mRNA; test: RT-PCR analysis of CSB mRNA levels after oligonucleotide transfection; type: cell-based; conditions: A2780/CP70 cells, 200 nM oligonucleotide with lipofectin, FIG. 3
Description: as §1, §2, §3

[5] = test system: A2780/CP70 ovarian carcinoma cells; test: Plate assay of cell proliferation in the absence of added drug (cell number by hemacytometer); type: cell-based; conditions: absence of any other anti-cancer agents, two days in culture
Description: FIG. 8 is a graphic representation showing that anti-CSB oligonucleotides retard cell proliferation in the absence of cytotoxic agents. A2780/CP70 ovarian carcinoma cells were transfected with indicated oligonucleotides and maintained in culture media for two more days to assess cell proliferation rate.
A plate assay was also performed in the absence of added drug. Cells treated with oligonucleotides or mismatched controls were maintained in culture for two days. Cells were then trypsinized and cell number was determined using a hemacytometer. Numbers from three independent experiments were averaged and standard deviation was calculated. Statistical comparison was via paired t-test.

[6] = test system: A2780/CP70 ovarian carcinoma cells; test: MTS cell proliferation assay, sensitization to oxidizing agents (hydrogen peroxide, gamma radiation); type: cell-based; conditions: MTS assay after three days of growth; for sensitivity of cells to hydrogen peroxide: FIG. 7A; for sensitivity of cells to gamma radiation: FIG. 7B
Description: (§4) FIG. 7A is a graphic representation showing that oligonucleotides targeting CSB mRNA sensitize ovarian carcinoma cells to oxidative damage. A2780/CP70 ovarian carcinoma cells were transfected with oligonucleotides HYB 971 (SEQ ID NO:2) targeting CSB mRNA or control antisense oligonucleotide (HYB 1019) (SEQ ID NO:5) and then transferred to 96-well dishes for exposure to hydrogen peroxide at the indicated concentrations, followed by three days of growth in normal medium and subsequent assessment of cell proliferation via MTS assay.
as §4, with “7B” for “7A”, “gamma radiation” for “hydrogen peroxide”, “doses” for “concentrations,”
(§5) The cisplatin-resistant ovarian carcinoma cell line A2780/CP70 was maintained in RPMI-1640 medium supplemented with 10% fetal bovine serum, 1× penicillin -streptomycin-neomycin (PSN) (Gibco, Rockville, Md.) 2 mM L-glutamine and 0.2 units/ml insulin (Novo Nordisk Pharmaceuticals, Princeton, N.J.) at 37_C under a humidified 5% CO2 atmosphere. SV40-immortalized CS-B fibroblasts stably transfected with pCSB or control construct (generously provided by Dr. J. Hoeijmakers, Erasmus University, Rotterdam, Netherlands were maintained as previously described (Troelstra et al. (1992) Cell 71:939-953). SV40-immortalized CS-A cell lines (CS3BE.S3.G1+pDR2 and CS3BE.S3.G1+pDR2-CSA), were also maintained as described by Henning et al. (1995) Cell 82:555-564. DNA repair competent (GM 5659C), XP-A (GM2009), and XP-G (GM3021) fibroblasts were obtained from the National Institute of General Medical Sciences Human Genetic Mutant Cell Repository (Camden, N.J.) and maintained as described by Ratner et al. (1998) J. Biolog. Chem. 273:5184-5189. Gamma radiation was administered to cells in a 96 well plate with a Gamma Cell-40 Irradiator (Nordion International, Canada) while the 96 well plate was on ice.
(§6) P values reported are for the multiple comparison test.

[7] = test system: A2780/CP70 ovarian carcinoma cells
Description: as §8, §9, §10

[8] = test system: Immortalized CS-B fibroblasts; test: MTS proliferation assay of CS-B fibroblasts versus CSB-restored fibroblasts; type: cell-based; conditions: 3 days drug exposure
Description: as §5, §6

[9] = test system: XP-A fibroblasts; test: MTS proliferation assay of XP-A fibroblasts versus NER proficient 5659C fibroblasts; type: cell-based, human
Description: (§7) Primary fibroblasts from XPA, XPG, or repair-competent individuals were exposed to oxaliplatin and assayed as described in FIGS. 1A-D.
as §5, §6

[10] = test system: XP-G fibroblasts; test: MTS proliferation assay of XP-G fibroblasts versus NER proficient 5659C fibroblasts; type: cell-based, human
Description: as §7, §5, §6

[11] = test system: Immortalized CS-A fibroblasts; test: MTS proliferation assay of CS-A fibroblasts versus CSA-restored fibroblasts; type: cell-based; conditions: 3 days drug exposure
Description: as §5, §6

## 5′(590)-d(CCAAACCTGCACGATACATC)-3′ [HYB 1040, reference compound]
[1]
  XPA mRNA levels: did not reduce the level of XPA mRNA

## 5′(750)-d(GGTCCATACTCATGTTGATG)-3′ (DNA, backbone and methylation of C not given here) [HYB 963]
[2]
  reduction of the ID50 of cisplatin: about 25%
  reduction of the ID50 of oxaliplatin: about 25%
  sensitivity of the cells to cisplatin or oxaliplatin (cytotoxicity of both platinum agents): increase the sensitivity
[1]
  XPA mRNA levels: reduce XPA mRNA levels

## 5′(1110)-d(CTGACCTACCACTTCTGCAC)-3′ [HYB 964]
[2]
  reduction of the ID50 of cisplatin: about 25%
  reduction of the ID50 of oxaliplatin: about 25%
  sensitivity of the cells to cisplatin or oxaliplatin (cytotoxicity of both platinum agents): increase the sensitivity
[1]
  XPA mRNA levels: reduce XPA mRNA levels
[3]
  fewer colonies than control HYB 1040 or lipofectin-only (sham) transfected cells: about 50%

## 5′(1612)-d(GCTACATAAGACCAGTGTGC)-3′ (DNA, backbone and methylation of C not given here) [HYB 1019, reference compound]
[2]
  sensitivity of the cells to cisplatin or oxaliplatin (cytotoxicity of both platinum agents): did not alter the sensitivity
[4]
  CSB mRNA levels: did not reduce the level of CSB mRNA

## 5′(2037)-d(GGTGACAGCAGCATTTGGAT)-3′ (DNA, backbone not given here) [HYB 969]
[5]
  reduction of proliferation compared to control oligonucleotide (HYB 1019) or sham transfected cells: about 50%
[2]
  reduction of the ID50 of cisplatin: 70%
  reduction of the ID50 of oxaliplatin: 50%
  potentiation of cisplatin or oxaliplatin, dose response curves normalized to HYB 1019-transfected cells: robust potentiation
[6]
  sensitivity of cells to hydrogen peroxide: significantly increased the sensitivity
  sensitivity of cells to gamma radiation: significantly increased the sensitivity
[4]
  reduction of CSB mRNA levels: about 50%
[7]
  sensitivity of the cells to cisplatin or oxaliplatin (cytotoxicity of both platinum agents): substantially enhanced the cytotoxicity

## 5′-(3212)-d(GGAACATCATGGTCTGCTCC)-3′ [HYB 971]
[5]
  reduction of proliferation compared to control oligonucleotide (HYB 1019) or sham transfected cells: about 50%
[2]
  reduction of the ID50 of cisplatin: 70%
  reduction of the ID50 of oxaliplatin: 50%
  sensitivity of the cells to cisplatin or oxaliplatin (cytotoxicity of both platinum agents): substantially enhanced the cytotoxicity
  potentiation of cisplatin or oxaliplatin, dose response curves normalized to HYB 1019-transfected cells: robust potentiation
[6]
  sensitivity of cells to hydrogen peroxide: significantly increased the sensitivity
  sensitivity of cells to gamma radiation: significantly increased the sensitivity
[4]
  reduction of CSB mRNA levels: about 50%

## O=C([O-])C(=O)[O-].[NH-][C@@H]1CCCC[C@H]1[NH-].[Pt+4] (relative stereo) [oxaliplatin, Cis [(1R, 2R) 1,2-cyclohexanediamine-N,N′ oxalato (2-)-O,O′] platinum]
[8]
  sensitivity of fibroblasts lacking functional CSB gene product versus restored WT: significantly more sensitive
[9]
  sensitivity of XP-A fibroblasts versus NER proficient 5659C fibroblasts: significantly more sensitive
[10]
  sensitivity of XP-G fibroblasts versus NER proficient 5659C fibroblasts: significantly more sensitive
[11]
  sensitivity of fibroblasts lacking functional CSA gene product versus restored WT: significantly more sensitive

## N.N.[Cl][Pt][Cl] [cisplatin, CIS-diamminedichloroplatinum]
[8]
  sensitivity of fibroblasts lacking functional CSB gene product versus restored WT: significantly more sensitive
[9]
  sensitivity of XP-A fibroblasts versus NER proficient 5659C fibroblasts: significantly more sensitive
[10]
  sensitivity of XP-G fibroblasts versus NER proficient 5659C fibroblasts: significantly more sensitive
[11]
  sensitivity of fibroblasts lacking functional CSA gene product versus restored WT: significantly more sensitive
